How the values were obtained:
Type in all cases: in vivo
Settings in all cases: evaluated after 13 days
Setaria faberi (SETFA) [1] = assay: Pre-emergence Test, Setaria faberi (SETFA)
[2] = tested on: Echinochloa crus-galli (ECHCG); assay: Pre-emergence Test, Echinochloa crus-galli (ECHCG)
Zea mays (ZEAMX) [3] = assay: Pre-emergence Test, Zea mays (ZEAMX)
[4] = tested on: Ipomoea hederacea (IPOHE); assay: Pre-emergence Test, Ipomoea hederacea (IPOHE)
[5] = tested on: Amaranthus palmeri (AMAPA); assay: Pre-emergence Test, Amaranthus palmeri (AMAPA)
[6] = tested on: Amaranthus retoflexus (AMARE); assay: Pre-emergence Test, Amaranthus retoflexus (AMARE)
Setaria faberi (SETFA) [7] = assay: Post-emergence Test, Setaria faberi (SETFA); parameters: key to percentage damage caused to the plant, SETFA (five-point scale): 5=81-100%, 4=61-80%, 3=41-60%, 2=21-40%, 1=0-20% damage
In short: (§1)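 Sown pots in a glasshouse (24/16 °C day/night, 14 h light, 65% humidity) were sprayed with compound in acetone/water (50:50) with 0.5% Tween 20, at 1000 g/ha unless otherwise stated. Damage was assessed 13 days after spraying and scored 1–5 (5=81-100%, 1=0-20%).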

[8] = tested on: Echinochloa crus-galli (ECHCG); assay: Post-emergence Test, Echinochloa crus-galli (ECHCG); parameters: key to percentage damage caused to the plant, ECHCG (five-point scale): 5=81-100%, 4=61-80%, 3=41-60%, 2=21-40%, 1=0-20% damage
In short: as §1

Zea mays (ZEAMX) [9] = assay: Post-emergence Test, Zea mays (ZEAMX); parameters: key to percentage damage caused to the plant, ZEAMX (five-point scale): 5=81-100%, 4=61-80%, 3=41-60%, 2=21-40%, 1=0-20% damage
In short: as §1

[10] = tested on: Ipomoea hederacea (IPOHE); assay: Post-emergence Test, Ipomoea hederacea (IPOHE); parameters: key to percentage damage caused to the plant, IPOHE (five-point scale): 5=81-100%, 4=61-80%, 3=41-60%, 2=21-40%, 1=0-20% damage
In short: as §1

[11] = tested on: Amaranthus palmeri (AMAPA); assay: Post-emergence Test, Amaranthus palmeri (AMAPA); parameters: key: 5=81-100%, 4=61-80%, 3=41-60%, 2=21-40%, 1=0-20% damage
In short: as §1

[12] = tested on: Amaranthus retoflexus (AMARE); assay: Post-emergence Test, Amaranthus retoflexus (AMARE); parameters: key to percentage damage caused to the plant, AMARE (five-point scale): 5=81-100%, 4=61-80%, 3=41-60%, 2=21-40%, 1=0-20% damage
In short: as §1

Compound	Pre-emergence Test SETFA, percentage damage caused to the plant (five-point scale) (Setaria faberi (SETFA) [1]; 250 g/Ha (*))	Pre-emergence Test SETFA, percentage damage caused to the plant (five-point scale) (Setaria faberi (SETFA) [1]; 1000 g/ha)	Pre-emergence Test ECHCG, percentage damage caused to the plant (five-point scale) ([2]; 250 g/Ha (*))	Pre-emergence Test ECHCG, percentage damage caused to the plant (five-point scale) ([2]; 1000 g/ha)	Pre-emergence Test ZEAMX, percentage damage caused to the plant (five-point scale) (Zea mays (ZEAMX) [3]; 1000 g/ha)	Pre-emergence Test IPOHE, percentage damage caused to the plant (five-point scale) ([4]; 1000 g/ha)	Pre-emergence Test AMAPA, percentage damage caused to the plant (five-point scale) ([5]; 1000 g/ha)	Pre-emergence Test AMARE, percentage damage caused to the plant (five-point scale) ([6]; 1000 g/ha)	percentage damage caused to the plant, SETFA (five-point scale) (Setaria faberi (SETFA) [7]; 250 g/Ha)	percentage damage caused to the plant, SETFA (five-point scale) (Setaria faberi (SETFA) [7]; 1000 g/ha)	percentage damage caused to the plant, ECHCG (five-point scale) ([8]; 250 g/Ha)	percentage damage caused to the plant, ECHCG (five-point scale) ([8]; 1000 g/ha)	percentage damage caused to the plant, ZEAMX (five-point scale) (Zea mays (ZEAMX) [9]; 250 g/Ha)	percentage damage caused to the plant, ZEAMX (five-point scale) (Zea mays (ZEAMX) [9]; 1000 g/ha)	percentage damage caused to the plant, IPOHE (five-point scale) ([10]; 250 g/Ha)	percentage damage caused to the plant, IPOHE (five-point scale) ([10]; 1000 g/ha)	percentage damage caused to the plant, AMAPA (five-point scale) ([11]; 250 g/Ha)	percentage damage caused to the plant, AMAPA (five-point scale) ([11]; 1000 g/ha)	percentage damage caused to the plant, AMARE (five-point scale) ([12]; 250 g/Ha)	percentage damage caused to the plant, AMARE (five-point scale) ([12]; 1000 g/ha)	other results
CCn1c(Cn2cc(Cl)c(C3CC3)n2)cc(=O)c(C(=O)O)c1-c1ccc(Cl)c(Cl)c1 [Compound 94, 6-[(4-chloro-3-cyclopropyl-pyrazol-1-yl)methyl]-2-(3,4-dichlorophenyl)-1-ethyl-4-oxo-pyridine-3-carboxylic acid]	1 (1=0-20%)	1 (1=0-20%)	2 (2=21-40%)	2 (2=21-40%)	0	1 (1=0-20%)	2 (2=21-40%)	1 (1=0-20%)	0	4 (4=61-80%)	4 (4=61-80%)	1 (1=0-20%)	0	0	0	3 (3=41-60%)	2 (2=21-40%)	3 (3=41-60%)	3 (3=41-60%)	3 (3=41-60%)	Pre-emergence Test ZEAMX, percentage damage caused to the plant (five-point scale) (Zea mays (ZEAMX) [3]; 250 g/Ha (*)): 0; Pre-emergence Test IPOHE, percentage damage caused to the plant (five-point scale) ([4]; 250 g/Ha (*)): 0; Pre-emergence Test AMAPA, percentage damage caused to the plant (five-point scale) ([5]; 250 g/Ha (*)): 1 (1=0-20%); Pre-emergence Test AMARE, percentage damage caused to the plant (five-point scale) ([6]; 250 g/Ha (*)): 0
CCn1c(Cn2cc(C)c(C(F)(F)F)n2)cc(=O)c(C(=O)O)c1-c1ccc(Cl)c(Cl)c1 [Compound 96, 2-(3,4-dichlorophenyl)-1-ethyl-6-[[4-methyl-3-(trifluoromethyl)pyrazol-1-yl]methyl]-4-oxo-pyridine-3-carboxylic acid]	–	3 (3=41-60%)	–	3 (3=41-60%)	0	1 (1=0-20%)	1 (1=0-20%)	1 (1=0-20%)	0	3 (3=41-60%)	2 (2=21-40%)	2 (2=21-40%)	0	4 (4=61-80%)	0	0	0	0	0	1 (1=0-20%)	–
CCn1c(Cn2ncc3cc(Cl)ccc32)cc(=O)c(C(=O)O)c1-c1ccc(Cl)c(Cl)c1 [Compound 98, 6-[(5-chloroindazol-1-yl)methyl]-2-(3,4-dichlorophenyl)-1-ethyl-4-oxo-pyridine-3-carboxylic acid]	0	–	0	–	–	–	–	–	1 (1=0-20%)	–	2 (2=21-40%)	–	1 (1=0-20%)	–	1 (1=0-20%)	–	0	–	1 (1=0-20%)	–	Pre-emergence Test ZEAMX, percentage damage caused to the plant (five-point scale) (Zea mays (ZEAMX) [3]; 250 g/Ha (*)): 0; Pre-emergence Test IPOHE, percentage damage caused to the plant (five-point scale) ([4]; 250 g/Ha (*)): 0; Pre-emergence Test AMAPA, percentage damage caused to the plant (five-point scale) ([5]; 250 g/Ha (*)): 1 (1=0-20%); Pre-emergence Test AMARE, percentage damage caused to the plant (five-point scale) ([6]; 250 g/Ha (*)): 0
CCn1c(Cn2cc(C(C)=O)c(C)n2)cc(=O)c(C(=O)O)c1-c1ccc(Cl)c(Cl)c1 [Compound 100, 6-[(4-acetyl-3-methyl-pyrazol-1-yl)methyl]-2-(3,4-dichlorophenyl)-1-ethyl-4-oxo-pyridine-3-carboxylic acid]	–	1 (1=0-20%)	–	0	0	2 (2=21-40%)	2 (2=21-40%)	2 (2=21-40%)	0	2 (2=21-40%)	3 (3=41-60%)	2 (2=21-40%)	0	1 (1=0-20%)	0	3 (3=41-60%)	0	2 (2=21-40%)	0	2 (2=21-40%)	–
CCn1c(Cn2cc3c(n2)CCCC3)cc(=O)c(C(=O)O)c1-c1ccc(Cl)c(Cl)c1 [Compound 101, 2-(3,4-dichlorophenyl)-1-ethyl-4-oxo-6-(4,5,6,7-tetrahydroindazol-2-ylmethyl)pyridine-3-carboxylic acid]	–	1 (1=0-20%)	–	0	1 (1=0-20%)	2 (2=21-40%)	2 (2=21-40%)	1 (1=0-20%)	0	0	1 (1=0-20%)	0	0	0	0	3 (3=41-60%)	0	0	0	0	–
